Test results taken from ChEMBL document CHEMBL1201862, “PubChem BioAssay data set” (2004).
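Values below derive from 48-hour exposures of cells grown in 96-well plates, with endpoints linearly interpolated between the two concentrations bracketing the appropriate inhibition level. At the GI50, growth is halved.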 Calls of active or inactive are those of the source. Cut-off read from the data, not from the text of the source: active = GI50 up to about 1.1 µM and inactive = higher. Where a SMILES comes first, the peptide text is derived from it. The star is where a group is joined. Boc = CC(C)(C)OC(=O)*

Columns and labels:
Experiment in all cases: growth of human tumour cells (NCI), 48 h
NCI-H522 = test system: NCI-H522
OVCAR-8 = test system: OVCAR-8
Malme-3M = test system: Malme-3M
COLO 205 = test system: COLO 205
NCI-H23 = test system: NCI-H23
SK-MEL-5 = test system: SK-MEL-5
SF-539 = test system: SF-539
U-251 = test system: U-251
TK-10 = test system: TK-10
OVCAR-3 = test system: OVCAR-3
HL-60 = test system: HL-60
SW-620 = test system: SW-620
EKVX = test system: EKVX
UO-31 = test system: UO-31
A549 = test system: A549
SK-MEL-2 = test system: SK-MEL-2
SN12C = test system: SN12C
UACC-62 = test system: UACC-62
NCI-H226 = test system: NCI-H226
HCC 2998 = test system: HCC 2998

Structure (SMILES) | GI50 (NCI-H522) | GI50 (OVCAR-8) | GI50 (Malme-3M) | GI50 (COLO 205) | GI50 (NCI-H23) | GI50 (SK-MEL-5) | GI50 (SF-539) | GI50 (U-251) | GI50 (TK-10) | GI50 (OVCAR-3) | GI50 (HL-60) | GI50 (SW-620) | GI50 (EKVX) | GI50 (UO-31) | GI50 (A549) | GI50 (SK-MEL-2) | GI50 (SN12C) | GI50 (UACC-62) | GI50 (NCI-H226) | GI50 (HCC 2998)
O=C(NN1C(=O)C(Cl)C1c1ccccc1O)c1ccccc1O (stereo not given) | 29 µM (inactive) | 26.4 µM (inactive) | 13.9 µM (inactive) | 21.4 µM (inactive) | 42.5 µM (inactive) | 29.4 µM (inactive) | 16.3 µM (inactive) | 16.2 µM (inactive) | 47.5 µM (inactive) | 3.13 µM (inactive) | 6.11 µM (inactive) | 32.7 µM (inactive) | 29.4 µM (inactive) | 21.3 µM (inactive) | 17.8 µM (inactive) | 19.8 µM (inactive) | 89.5 µM (inactive) | 27.9 µM (inactive) |  | 
Cc1nc2ccccc2c(=O)n1Nc1ccc(C(=O)O)cc1 | > 100 µM (inactive) | > 100 µM (inactive) | > 100 µM (inactive) | > 100 µM (inactive) | > 100 µM (inactive) | > 100 µM (inactive) | > 100 µM (inactive) | > 100 µM (inactive) |  | > 100 µM (inactive) | > 100 µM (inactive) | > 100 µM (inactive) | > 100 µM (inactive) | > 100 µM (inactive) | > 100 µM (inactive) | > 100 µM (inactive) | > 100 µM (inactive) | > 100 µM (inactive) | > 100 µM (inactive) | > 100 µM (inactive)
Cc1ccc(N2C(=O)/C(=C3\SC(C(N)=O)=C(N)N3c3ccccc3)SC2=S)cc1 | 27.7 µM (inactive) | 46 µM (inactive) |  | > 100 µM (inactive) | 51.1 µM (inactive) | > 100 µM (inactive) | 22.8 µM (inactive) | 71.6 µM (inactive) | > 100 µM (inactive) | 90.2 µM (inactive) | > 100 µM (inactive) | > 100 µM (inactive) |  | > 100 µM (inactive) | > 100 µM (inactive) |  |  | > 100 µM (inactive) | 37.3 µM (inactive) | > 100 µM (inactive)
c1ccc2c3c(ccc2c1)-c1[nH]ncc1CCO3 | 21.8 µM (inactive) | 34.4 µM (inactive) | 45.7 µM (inactive) | 37.2 µM (inactive) | 25.2 µM (inactive) | > 46.9 µM (inactive) | 25 µM (inactive) | 18.4 µM (inactive) |  | 27.7 µM (inactive) | 14.6 µM (inactive) | 37.8 µM (inactive) | 13.6 µM (inactive) | 25.6 µM (inactive) | 37 µM (inactive) | 36.1 µM (inactive) | 29.2 µM (inactive) | 29.9 µM (inactive) |  | 35.6 µM (inactive)
C=C(C)[C@@H]1CC[C@@H]2C(=CC[C@]3(C)C([C@H](C)CC/C=C(/C)C(=O)O)CC[C@@]23C)[C@@]1(C)CCC(=O)O (stereo not given in full) | 22.7 µM (inactive) | 34.4 µM (inactive) | 25.5 µM (inactive) | 22.6 µM (inactive) | 24 µM (inactive) | 16.9 µM (inactive) | 30.4 µM (inactive) | 24.5 µM (inactive) | 36.6 µM (inactive) | 19.9 µM (inactive) | 26.8 µM (inactive) | 29 µM (inactive) | 36.3 µM (inactive) | 16.7 µM (inactive) | 36.8 µM (inactive) | 20.2 µM (inactive) | 33.4 µM (inactive) | 20.4 µM (inactive) | 21.3 µM (inactive) | 18.8 µM (inactive)
O=C(c1ccccc1)c1nc2ccc(Cl)cc2c2c1CCCO2 | > 100 µM (inactive) | > 100 µM (inactive) | > 100 µM (inactive) | > 100 µM (inactive) | 72.8 µM (inactive) |  |  | > 100 µM (inactive) | > 100 µM (inactive) | > 100 µM (inactive) |  | > 100 µM (inactive) | > 100 µM (inactive) | > 100 µM (inactive) |  | > 100 µM (inactive) | > 100 µM (inactive) | > 100 µM (inactive) | > 100 µM (inactive) | > 100 µM (inactive)
CCOCNC(=O)N(COCC)COCC | > 100 µM (inactive) | > 100 µM (inactive) | > 100 µM (inactive) | > 100 µM (inactive) |  |  | > 100 µM (inactive) |  |  | 33 µM (inactive) | > 100 µM (inactive) | > 100 µM (inactive) | > 100 µM (inactive) | > 100 µM (inactive) | > 100 µM (inactive) | > 100 µM (inactive) | > 100 µM (inactive) | > 100 µM (inactive) | > 100 µM (inactive) | > 100 µM (inactive)
Cc1c2cnccc2c(C)c2c1c1ccccc1n2CC1CO1 (stereo not given) | 1.07 µM (active) | 0.443 µM (active) | 1.75 µM (inactive) | 1.16 µM (inactive) | 0.422 µM (active) | 1.1 µM (active) | 1.21 µM (inactive) | 1.6 µM (inactive) |  | 1.57 µM (inactive) | 0.0283 µM (active) | 0.345 µM (active) | 0.687 µM (active) | 1.42 µM (inactive) | 1.51 µM (inactive) | 1.66 µM (inactive) | 0.174 µM (active) | 1.63 µM (inactive) | 1.76 µM (inactive) | 1.18 µM (inactive)
CN1NC(c2ccc(Cl)cc2)=C(C#N)C(=O)CC1c1ccccc1 (stereo not given) | 79.4 µM (inactive) |  |  | > 100 µM (inactive) | > 100 µM (inactive) | 72.9 µM (inactive) |  | > 100 µM (inactive) | > 100 µM (inactive) |  | > 100 µM (inactive) | > 100 µM (inactive) |  |  | > 100 µM (inactive) | > 100 µM (inactive) |  |  | > 10 µM (inactive) | 
O=C(Cc1nc2ccc(C(=O)c3ccccc3)cc2nc1O)C(=O)Nc1nc2ccccc2[nH]1 | 30 µM (inactive) | 55.1 µM (inactive) | 87.9 µM (inactive) | 36.8 µM (inactive) | 44.6 µM (inactive) | 31 µM (inactive) | 71 µM (inactive) |  | 49.3 µM (inactive) | 62.5 µM (inactive) | 35.8 µM (inactive) | 42.9 µM (inactive) | > 100 µM (inactive) | 60.3 µM (inactive) | 50.9 µM (inactive) |  | > 100 µM (inactive) | 38.7 µM (inactive) |  | > 100 µM (inactive)
CC1C2CC(CC2O)C1(C)C (stereo not given) | > 100 µM (inactive) | > 100 µM (inactive) | > 100 µM (inactive) | > 100 µM (inactive) | > 100 µM (inactive) | > 100 µM (inactive) | > 100 µM (inactive) | > 100 µM (inactive) | > 100 µM (inactive) | > 100 µM (inactive) | > 100 µM (inactive) | > 100 µM (inactive) |  | > 100 µM (inactive) | > 100 µM (inactive) |  | > 100 µM (inactive) | > 100 µM (inactive) | > 100 µM (inactive) | 
COC(=O)c1cccc(N[C@@H]2c3cc4c(cc3C(c3cc(OC)c(O)c(OC)c3)[C@H]3C(=O)OCC32)OCO4)c1 (stereo not given in full) | 1.4 µM (inactive) | 1.73 µM (inactive) | 2.33 µM (inactive) | 1.33 µM (inactive) | 0.63 µM (active) | 1.11 µM (active) | 0.528 µM (active) | 1.05 µM (active) |  | 2.07 µM (inactive) | 0.149 µM (active) | 1.97 µM (inactive) | 4.03 µM (inactive) | 0.718 µM (active) | 0.153 µM (active) | 4.69 µM (inactive) | 1.45 µM (inactive) | 0.729 µM (active) | 0.662 µM (active) | 2.19 µM (inactive)
COc1cc(O)c2c(=O)cc(C3(O)C=CC(=O)C=C3)oc2c1 | < 0.0361 µM (active) | 0.0448 µM (active) | < 0.01 µM (active) | 0.463 µM (active) | 0.664 µM (active) | 0.0321 µM (active) | < 0.01 µM (active) | < 0.0405 µM (active) | 0.0658 µM (active) |  | < 0.01 µM (active) | < 0.0417 µM (active) | 1.36 µM (inactive) | 0.0733 µM (active) |  | 0.619 µM (active) | 0.135 µM (active) | 0.378 µM (active) | 0.394 µM (active) | 0.535 µM (active)
c1ccc(-c2nnc(-c3nsc4ccccc34)o2)cc1 |  | > 100 µM (inactive) |  | > 100 µM (inactive) | > 100 µM (inactive) | > 100 µM (inactive) | > 100 µM (inactive) | > 100 µM (inactive) | > 100 µM (inactive) | > 100 µM (inactive) | > 100 µM (inactive) | > 100 µM (inactive) | 41.4 µM (inactive) | 19.5 µM (inactive) | > 100 µM (inactive) | > 100 µM (inactive) | > 100 µM (inactive) | > 100 µM (inactive) |  | > 100 µM (inactive)
COc1ccc(-c2cc(O)c3ccc(C)nc3n2)cc1 | > 100 µM (inactive) | > 100 µM (inactive) | > 100 µM (inactive) | > 100 µM (inactive) | > 100 µM (inactive) |  | > 100 µM (inactive) |  | > 100 µM (inactive) |  |  | > 100 µM (inactive) | > 100 µM (inactive) | > 100 µM (inactive) | > 100 µM (inactive) | > 100 µM (inactive) | > 100 µM (inactive) | 86.1 µM (inactive) | > 100 µM (inactive) | > 100 µM (inactive)
CC(C)(C)OC(=O)NC(Cc1ccccc1)C(=O)N1CCCC1C(N)=O (stereo not drawn) (Boc-Phe-Pro-NH2; configuration not given here) | > 100 µM (inactive) | > 100 µM (inactive) | > 100 µM (inactive) | > 100 µM (inactive) |  | > 100 µM (inactive) |  |  | > 100 µM (inactive) | > 100 µM (inactive) | > 100 µM (inactive) | > 100 µM (inactive) | > 100 µM (inactive) |  | > 100 µM (inactive) |  |  | > 100 µM (inactive) |  | > 100 µM (inactive)
